Results published in ChEMBL document CHEMBL1137910, “Synthesis and biological activity of novel antibacterial quinazolines” (2004).

Legend:
Assay type in all cases: functional
Bacillus subtilis = test: Ability to inhibit growth of Bacillus subtilis MTCC 121 was determined
Pseudomonas aeruginosa = test: Ability to inhibit growth of Pseudomonas aeruginosa MTCC 1034 was determined
Klebsiella pneumoniae = test: Ability to inhibit growth of Klebsiella pneumoniae MTCC 109 was determined
Shigella sonnei = test: Ability to inhibit growth of Shigella sonnei MTCC 2957 was determined
Staphylococcus aureus = test: Ability to inhibit growth of Staphylococcus aureus MTCC1430 was determined
Bacillus cereus = test: Ability to inhibit growth of Bacillus cereus MTCC 1272 was determined
Enterococcus faecalis = test: Ability to inhibit growth of Enterococcus faecalis MTCC 439 was determined
Proteus vulgaris = test: Ability to inhibit growth of Proteus vulgaris MTCC744 was determined
Escherichia coli = test: Ability to inhibit growth of Escherichia coli MTCC 42 was determined

## Cc1ccc2nc(N3CCOCC3)nc(-c3ccccc3)c2c1
Bacillus subtilis
  Growth Inhibition: 16 mm
Pseudomonas aeruginosa
  Growth Inhibition: 19 mm
Klebsiella pneumoniae
  Growth Inhibition: 19 mm
Shigella sonnei
  Growth Inhibition: 20 mm
Staphylococcus aureus
  Growth Inhibition: 12 mm
Bacillus cereus
  Growth Inhibition: 15 mm
Enterococcus faecalis
  Growth Inhibition: 16 mm
Proteus vulgaris
  Growth Inhibition: 18 mm
Escherichia coli
  Growth Inhibition: 21 mm

## COc1ccc(-c2nc(-c3ccccc3)nc3ccc(C)cc23)cc1
Bacillus subtilis
  Growth Inhibition: 12 mm
Pseudomonas aeruginosa
  Growth Inhibition: 16 mm
Klebsiella pneumoniae
  Growth Inhibition: 17 mm
Shigella sonnei
  Growth Inhibition: 15 mm
Staphylococcus aureus
  Growth Inhibition: 0 mm
Bacillus cereus
  Growth Inhibition: 13 mm
Enterococcus faecalis
  Growth Inhibition: 12 mm
Proteus vulgaris
  Growth Inhibition: 15 mm
Escherichia coli
  Growth Inhibition: 16 mm

## O=C(O)c1cn(C2CC2)c2cc(N3CCNCC3)c(F)cc2c1=O [CIPROFLOXACIN]
Bacillus subtilis
  Growth Inhibition: 22 mm
Pseudomonas aeruginosa
  Growth Inhibition: 18 mm
Klebsiella pneumoniae
  Growth Inhibition: 18 mm
Shigella sonnei
  Growth Inhibition: 21 mm
Staphylococcus aureus
  Growth Inhibition: 21 mm
Bacillus cereus
  Growth Inhibition: 17 mm
Enterococcus faecalis
  Growth Inhibition: 16 mm
Proteus vulgaris
  Growth Inhibition: 19 mm
Escherichia coli
  Growth Inhibition: 22 mm

## Cc1ccc2nc(-c3ccccc3)nc(-c3ccc(N(C)C)cc3)c2c1
Bacillus subtilis
  Growth Inhibition: 15 mm
Pseudomonas aeruginosa
  Growth Inhibition: 18 mm
Klebsiella pneumoniae
  Growth Inhibition: 19 mm
Shigella sonnei
  Growth Inhibition: 16 mm
Staphylococcus aureus
  Growth Inhibition: 11 mm
Bacillus cereus
  Growth Inhibition: 14 mm
Enterococcus faecalis
  Growth Inhibition: 12 mm
Proteus vulgaris
  Growth Inhibition: 17 mm
Escherichia coli
  Growth Inhibition: 18 mm

## COc1ccc(-c2nc(N3CCCCC3)nc3ccc(C)cc23)cc1
Bacillus subtilis
  Growth Inhibition: 21 mm
Pseudomonas aeruginosa
  Growth Inhibition: 15 mm
Klebsiella pneumoniae
  Growth Inhibition: 20 mm
Shigella sonnei
  Growth Inhibition: 21 mm
Staphylococcus aureus
  Growth Inhibition: 19 mm
Bacillus cereus
  Growth Inhibition: 16 mm
Enterococcus faecalis
  Growth Inhibition: 16 mm
Proteus vulgaris
  Growth Inhibition: 18 mm
Escherichia coli
  Growth Inhibition: 19 mm

## Cc1ccc2nc(N3CCOCC3)nc(-c3ccc(N(C)C)cc3)c2c1
Bacillus subtilis
  Growth Inhibition: 18 mm
Pseudomonas aeruginosa
  Growth Inhibition: 16 mm
Klebsiella pneumoniae
  Growth Inhibition: 20 mm
Shigella sonnei
  Growth Inhibition: 19 mm
Staphylococcus aureus
  Growth Inhibition: 22 mm
Bacillus cereus
  Growth Inhibition: 19 mm
Enterococcus faecalis
  Growth Inhibition: 17 mm
Proteus vulgaris
  Growth Inhibition: 18 mm
Escherichia coli
  Growth Inhibition: 20 mm
